Test results reported in ChEMBL document CHEMBL4017512 (J Med Chem, 2017).

Assays:
[1] = test system: HCT-116; assay: Antiproliferative activity against human HCT116 cells after 72 hrs by phosphatase assay; assay type: functional, cell-based; settings: HCT-116, 72 h
[2] = Cytotoxicity against human HCT116/VM46 cells assessed as reduction in cell viability after 72 hrs by phosphatase assay; assay type: cell-based; settings: HCT-116/VM46, 72 h
[3] = test system: L1210; assay: Antiproliferative activity against mouse L1210 cells after 72 hrs by phosphatase assay; assay type: functional, cell-based; settings: L1210, 72 h
[4] = Displacement of BODIPY-labeled vinblastine from tubulin (unknown origin) at 18 uM after 60 mins by fluorescence assay relative to control; settings: Homo sapiens
[5] = Antiproliferative activity against human HCT116/VP35 cells after 72 hrs by phosphatase assay; assay type: functional, cell-based; settings: HCT-116, 72 h
[6] = test system: LNCaP; assay: Antiproliferative activity against human LNCAP cells after 72 hrs by phosphatase assay; assay type: functional, cell-based
[7] = test system: LS174T; assay: Antiproliferative activity against human LS174T cells after 72 hrs by phosphatase assay; assay type: functional, cell-based
[8] = test system: MDA-MB-468; assay: Antiproliferative activity against human MDA-MB-468 cells after 72 hrs by phosphatase assay; assay type: functional, cell-based; settings: MDA-MB-468, 72 h
[9] = test system: NCI-H520; assay: Antiproliferative activity against human NCI-H520 cells after 72 hrs by phosphatase assay; assay type: functional, cell-based; settings: NCI-H520, 72 h
[10] = test system: PA-1; assay: Antiproliferative activity against human PA1 cells after 72 hrs by phosphatase assay; assay type: functional, cell-based; settings: PA-1, 72 h
[11] = Cytotoxicity against human HCT116/VM46 cells assessed as reduction in cell viability; assay type: cell-based; settings: HCT-116/VM46
[12] = test system: L1210; assay: Antiproliferative activity against mouse L1210 cells; assay type: functional, cell-based
[13] = test system: HCT-116; assay: Antiproliferative activity against human HCT116 cells; assay type: functional, cell-based
[14] = molecular target: MDR1 (ABCB1, P-gp) ATPase (Homo sapiens, UniProt P08183); assay: Inhibition of MDR1 (unknown origin) ATPase activity expressed in sf9 cell membranes assessed as residual activity at 20 uM using ATP as substrate preincubated for 5 mins followed by substrate addition measured after 20 mins by spectrophotometric method relative to control; settings: Sf9 cell membranes expressing MDR1, probe ATP, read-out: Activity
[15] = Apparent permeability from basolateral to apical side in human Caco2 cells; assay type: ADME, cell-based; settings: Caco-2

Chain of MDR1 (ABCB1, P-gp) ATPase (P08183 whole entry): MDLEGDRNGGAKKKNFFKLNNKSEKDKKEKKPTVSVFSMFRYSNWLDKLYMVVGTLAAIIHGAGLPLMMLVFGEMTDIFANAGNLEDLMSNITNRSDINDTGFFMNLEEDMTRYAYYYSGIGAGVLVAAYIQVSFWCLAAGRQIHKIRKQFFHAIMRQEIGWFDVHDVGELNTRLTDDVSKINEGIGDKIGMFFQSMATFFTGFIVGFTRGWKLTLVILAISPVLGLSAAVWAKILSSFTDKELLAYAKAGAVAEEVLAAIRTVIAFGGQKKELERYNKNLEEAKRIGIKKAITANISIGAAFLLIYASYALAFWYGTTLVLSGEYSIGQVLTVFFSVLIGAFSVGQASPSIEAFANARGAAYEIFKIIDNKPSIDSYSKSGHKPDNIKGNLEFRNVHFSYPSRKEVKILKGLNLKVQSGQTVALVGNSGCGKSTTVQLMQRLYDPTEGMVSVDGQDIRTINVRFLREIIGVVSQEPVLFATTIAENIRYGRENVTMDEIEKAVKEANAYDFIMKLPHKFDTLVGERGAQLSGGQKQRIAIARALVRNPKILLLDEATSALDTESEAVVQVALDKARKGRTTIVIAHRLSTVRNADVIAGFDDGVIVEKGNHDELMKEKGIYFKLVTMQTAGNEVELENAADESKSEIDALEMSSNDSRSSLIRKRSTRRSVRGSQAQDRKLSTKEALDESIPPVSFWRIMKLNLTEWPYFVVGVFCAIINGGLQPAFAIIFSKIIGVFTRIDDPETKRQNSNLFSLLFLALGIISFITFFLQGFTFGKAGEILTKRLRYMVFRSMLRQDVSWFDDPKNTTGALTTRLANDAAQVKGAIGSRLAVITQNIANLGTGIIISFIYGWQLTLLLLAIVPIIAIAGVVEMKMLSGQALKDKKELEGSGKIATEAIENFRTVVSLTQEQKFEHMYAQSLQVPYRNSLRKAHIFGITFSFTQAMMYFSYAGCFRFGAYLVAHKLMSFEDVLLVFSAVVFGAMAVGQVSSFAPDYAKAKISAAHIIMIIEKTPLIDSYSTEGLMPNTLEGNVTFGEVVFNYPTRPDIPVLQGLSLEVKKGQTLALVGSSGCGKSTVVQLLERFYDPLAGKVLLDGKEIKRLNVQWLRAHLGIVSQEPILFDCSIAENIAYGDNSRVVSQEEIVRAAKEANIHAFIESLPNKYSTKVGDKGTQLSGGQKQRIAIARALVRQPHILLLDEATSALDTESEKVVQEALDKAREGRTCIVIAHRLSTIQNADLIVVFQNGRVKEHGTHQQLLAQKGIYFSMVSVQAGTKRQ

Row | IC50 [1] [nM] | Structure (SMILES) | IC50 [2] [nM] | IC50 [3] [nM] | inhibition [4] [%] | further results
1 | – | CC[C@]1(NC=O)C[C@H]2CN(CCc3c([nH]c4ccccc34)[C@@](C(=O)OC)(c3cc4c(cc3OC)N(C)[C@H]3[C@@](O)(C(=O)OC)[C@H](OC(C)=O)[C@]5(CC)C=CCN6CC[C@]43[C@@H]65)C2)C1 | – | – | – | IC50 [11]: 6500 nM; IC50 [12]: 65 nM
2 | 4.1 | CC(=O)O[C@H]1C(=O)[C@@]2(C)[C@H]([C@H](OC(=O)c3ccccc3)[C@]3(O)C[C@H](OC(=O)[C@H](O)[C@@H](NC(=O)c4ccccc4)c4ccccc4)C(C)=C1C3(C)C)[C@]1(OC(C)=O)CO[C@@H]1C[C@@H]2O [PACLITAXEL] | > 200 | – | – | IC50 [5]: 6.3 nM; IC50 [6]: 1.9 nM; IC50 [7]: 9.5 nM; IC50 [8]: 5.4 nM; IC50 [9]: 8.2 nM; IC50 [10]: 3 nM
3 | – | CC[C@]1(NC(C)=O)C[C@H]2CN(CCc3c([nH]c4ccccc34)[C@@](C(=O)OC)(c3cc4c(cc3OC)N(C)[C@H]3[C@@](O)(C(=O)OC)[C@H](OC(C)=O)[C@]5(CC)C=CCN6CC[C@]43[C@@H]65)C2)C1 | – | – | – | IC50 [11]: 7500 nM; IC50 [12]: 65 nM
4 | – | CC[C@]1(NC(=O)C(F)(F)F)C[C@H]2CN(CCc3c([nH]c4ccccc34)[C@@](C(=O)OC)(c3cc4c(cc3OC)N(C)[C@H]3[C@@](O)(C(=O)OC)[C@H](OC(C)=O)[C@]5(CC)C=CCN6CC[C@]43[C@@H]65)C2)C1 | – | – | – | IC50 [13]: 690 nM; IC50 [11]: 8100 nM; IC50 [12]: 660 nM
5 | – | CC[C@]1(O)C[C@@H]2CN(CCc3c([nH]c4ccccc34)[C@@](C(=O)OC)(c3cc4c(cc3OC)N(C)[C@H]3[C@@](O)(C(=O)OC)[C@H](OC(C)=O)[C@]5(CC)C=CCN6CC[C@]43[C@@H]65)C2)C1 [VINBLASTINE] | 110 to 600 | – | 50 to 61 | activity at 20 min, 20 µM [14]: 87%; Papp B→A [15]: 382 nm/s; IC50 [5]: 37 nM; IC50 [6]: 5.1 nM; IC50 [7]: 20 nM; IC50 [8]: 14 nM
6 | – | CC[C@]1(NC(=O)c2ccc(N(C)C)cc2)C[C@H]2CN(CCc3c([nH]c4ccccc34)[C@@](C(=O)OC)(c3cc4c(cc3OC)N(C)[C@H]3[C@@](O)(C(=O)OC)[C@H](OC(C)=O)[C@]5(CC)C=CCN6CC[C@]43[C@@H]65)C2)C1 | 4.1 | 0.18 | 88 | –
7 | 5.7 | CC[C@]1(NC(=O)c2ccc(OCc3ccccc3)cc2)C[C@H]2CN(CCc3c([nH]c4ccccc34)[C@@](C(=O)OC)(c3cc4c(cc3OC)N(C)[C@H]3[C@@](O)(C(=O)OC)[C@H](OC(C)=O)[C@]5(CC)C=CCN6CC[C@]43[C@@H]65)C2)C1 | 55 | 5.4 | – | –
8 | 0.7 | CC[C@]1(NC(=O)c2ccc(CNC(=O)OC(C)(C)C)cc2)C[C@H]2CN(CCc3c([nH]c4ccccc34)[C@@](C(=O)OC)(c3cc4c(cc3OC)N(C)[C@H]3[C@@](O)(C(=O)OC)[C@H](OC(C)=O)[C@]5(CC)C=CCN6CC[C@]43[C@@H]65)C2)C1 | 50 | 0.76 | – | –
9 | 0.7 | CC[C@]1(NC(=O)/C=C/c2ccoc2)C[C@H]2CN(CCc3c([nH]c4ccccc34)[C@@](C(=O)OC)(c3cc4c(cc3OC)N(C)[C@H]3[C@@](O)(C(=O)OC)[C@H](OC(C)=O)[C@]5(CC)C=CCN6CC[C@]43[C@@H]65)C2)C1 | 20 | 0.7 | – | –
10 | 10 | CC[C@]1(NC(=O)c2ccccc2OC)C[C@H]2CN(CCc3c([nH]c4ccccc34)[C@@](C(=O)OC)(c3cc4c(cc3OC)N(C)[C@H]3[C@@](O)(C(=O)OC)[C@H](OC(C)=O)[C@]5(CC)C=CCN6CC[C@]43[C@@H]65)C2)C1 | 100 | 30 | – | –
11 | 4400 | CC[C@]1(NC(=O)C2CCN(C)CC2)C[C@H]2CN(CCc3c([nH]c4ccccc34)[C@@](C(=O)OC)(c3cc4c(cc3OC)N(C)[C@H]3[C@@](O)(C(=O)OC)[C@H](OC(C)=O)[C@]5(CC)C=CCN6CC[C@]43[C@@H]65)C2)C1 | 6600 | 5300 | – | –
12 | 5.3 | CC[C@]1(NC(=O)c2cccc(F)c2)C[C@H]2CN(CCc3c([nH]c4ccccc34)[C@@](C(=O)OC)(c3cc4c(cc3OC)N(C)[C@H]3[C@@](O)(C(=O)OC)[C@H](OC(C)=O)[C@]5(CC)C=CCN6CC[C@]43[C@@H]65)C2)C1 | 25 | 5.7 | – | –

Row | Structure (SMILES) | IC50 [1] [nM] | IC50 [2] [nM] | IC50 [3] [nM] | inhibition [4] [%] | further results
13 | CC[C@]1(NC(=O)c2ccc(C)c(C)c2)C[C@H]2CN(CCc3c([nH]c4ccccc34)[C@@](C(=O)OC)(c3cc4c(cc3OC)N(C)[C@H]3[C@@](O)(C(=O)OC)[C@H](OC(C)=O)[C@]5(CC)C=CCN6CC[C@]43[C@@H]65)C2)C1 | 4.5 to 4.6 | 7.6 to 9 | 3 | 67 | IC50 [5]: 5.8 nM; IC50 [6]: 3 nM; IC50 [7]: 6.1 nM; IC50 [8]: 4.8 nM; IC50 [9]: 1.4 nM; IC50 [10]: 2.3 nM
14 | CC[C@]1(NC(=O)c2ccc3c(c2)CCCO3)C[C@H]2CN(CCc3c([nH]c4ccccc34)[C@@](C(=O)OC)(c3cc4c(cc3OC)N(C)[C@H]3[C@@](O)(C(=O)OC)[C@H](OC(C)=O)[C@]5(CC)C=CCN6CC[C@]43[C@@H]65)C2)C1 | 0.5 to 0.7 | 1.8 to 4.9 | 0.4 | 98 | IC50 [5]: 1.4 nM; IC50 [6]: 0.8 nM; IC50 [7]: 2.4 nM; IC50 [8]: 1.2 nM; IC50 [9]: 0.8 nM; IC50 [10]: 1 nM
15 | CC[C@]1(NC(=O)c2ccc(C#N)cc2)C[C@H]2CN(CCc3c([nH]c4ccccc34)[C@@](C(=O)OC)(c3cc4c(cc3OC)N(C)[C@H]3[C@@](O)(C(=O)OC)[C@H](OC(C)=O)[C@]5(CC)C=CCN6CC[C@]43[C@@H]65)C2)C1 | 3.1 | 60 | 4.4 | 56 | –
16 | CC[C@]1(NC(=O)c2ccccc2)C[C@H]2CN(CCc3c([nH]c4ccccc34)[C@@](C(=O)OC)(c3cc4c(cc3OC)N(C)[C@H]3[C@@](O)(C(=O)OC)[C@H](OC(C)=O)[C@]5(CC)C=CCN6CC[C@]43[C@@H]65)C2)C1 | 0.8 | 20 | 1.1 | 72 | –
17 | CC[C@]1(NC(=O)c2ccc3c(c2)CCCC3)C[C@H]2CN(CCc3c([nH]c4ccccc34)[C@@](C(=O)OC)(c3cc4c(cc3OC)N(C)[C@H]3[C@@](O)(C(=O)OC)[C@H](OC(C)=O)[C@]5(CC)C=CCN6CC[C@]43[C@@H]65)C2)C1 | 4.9 | 8.7 to 14 | 3.3 | 63 | activity at 20 min, 20 µM [14]: 0%; Papp B→A [15]: 20 nm/s; IC50 [5]: 6.2 nM; IC50 [6]: 3.9 nM; IC50 [7]: 6.6 nM; IC50 [8]: 6.3 nM; IC50 [9]: 1.8 nM; IC50 [10]: 2.6 nM
18 | CC[C@]1(NC(=O)C2CCC2)C[C@H]2CN(CCc3c([nH]c4ccccc34)[C@@](C(=O)OC)(c3cc4c(cc3OC)N(C)[C@H]3[C@@](O)(C(=O)OC)[C@H](OC(C)=O)[C@]5(CC)C=CCN6CC[C@]43[C@@H]65)C2)C1 | 5.4 | 85 | 5.4 | – | –
